Source: ChEMBL document CHEMBL1201862, “PubChem BioAssay data set” (2004)
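Cells were grown in 96-well plates and exposed to each compound for 48 hours at five concentrations; endpoints were interpolated linearly between bracketing concentrations, or set to the highest concentration if not reached. GI50: concentration for 50% inhibition of growth.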 Activity calls are given as the source filed them. Rule as the data show it: active = GI50 up to about 1.1 µM and inactive = higher.

Columns and labels:
Experiment in all cases: NCI tumour cell line growth inhibition, 48 h
786-0 = system: 786-0
A498 = system: A498
A549 = system: A549
ACHN = system: ACHN
BT-549 = system: BT-549
CAKI-1 = system: CAKI-1
CCRF-CEM = system: CCRF-CEM
COLO 205 = system: COLO 205
DU-145 = system: DU-145
EKVX = system: EKVX
HCC 2998 = system: HCC 2998
HCT-116 = system: HCT-116
HCT-15 = system: HCT-15
HL-60 = system: HL-60
HOP-62 = system: HOP-62
HOP-92 = system: HOP-92
HT-29 = system: HT-29
Hs-578T = system: Hs-578T
IGROV-1 = system: IGROV-1
K562 = system: K562
KM12 = system: KM12
LOX IMVI = system: LOX IMVI
M14 = system: M14
MCF7 = system: MCF7
MDA-MB-231 = system: MDA-MB-231
MDA-MB-435 = system: MDA-MB-435
MDA-N = system: MDA-N
MOLT-4 = system: MOLT-4
Malme-3M = system: Malme-3M
NCI-H226 = system: NCI-H226
NCI-H23 = system: NCI-H23
NCI-H460 = system: NCI-H460
NCI-H522 = system: NCI-H522
NCI/ADR-RES = system: NCI/ADR-RES
OVCAR-3 = system: OVCAR-3
OVCAR-4 = system: OVCAR-4
OVCAR-5 = system: OVCAR-5
OVCAR-8 = system: OVCAR-8
PC-3 = system: PC-3
RPMI-8226 = system: RPMI-8226
RXF 393 = system: RXF 393
SF-268 = system: SF-268
SF-295 = system: SF-295
SF-539 = system: SF-539
SK-MEL-28 = system: SK-MEL-28
SK-MEL-2 = system: SK-MEL-2
SK-MEL-5 = system: SK-MEL-5
SK-OV-3 = system: SK-OV-3
SN12C = system: SN12C
SNB-19 = system: SNB-19
SNB-75 = system: SNB-75
SR = system: SR
SW-620 = system: SW-620
T47D = system: T47D
TK-10 = system: TK-10
U-251 = system: U-251
UACC-257 = system: UACC-257
UACC-62 = system: UACC-62
UO-31 = system: UO-31

With `CCOC1SC(SC)=NN1C(=O)C(OC(C)=O)C(OC(C)=O)C(OC(C)=O)C(OC(C)=O)C(=O)N1N=C(SC)SC1OCC` (centres undefined) the GI50 (786-0) was 62.1 µM (inactive), the GI50 (A498) was > 100 µM (inactive) and the GI50 (A549) was > 100 µM (inactive). For the same compound, the GI50 (ACHN) was > 100 µM (inactive), the GI50 (BT-549) was > 100 µM (inactive) and the GI50 (CAKI-1) was > 100 µM (inactive). For the same compound, the GI50 (CCRF-CEM) was > 100 µM (inactive), the GI50 (COLO 205) was > 100 µM (inactive) and the GI50 (DU-145) was > 100 µM (inactive). For the same compound, the GI50 (EKVX) was > 100 µM (inactive), the GI50 (HCC 2998) was > 100 µM (inactive) and the GI50 (HCT-116) was 88.5 µM (inactive). The GI50 (HCT-15) was over 100 µM, the GI50 (HL-60) was > 100 µM (inactive) and the GI50 (HOP-62) was > 100 µM (inactive). The GI50 (HOP-92) was 38.2 µM (inactive), the GI50 (HT-29) was > 100 µM (inactive) and the GI50 (Hs-578T) was 35.2 µM (inactive). The GI50 (IGROV-1) was > 100 µM (inactive), the GI50 (K562) was > 100 µM (inactive) and the GI50 (KM12) was > 100 µM (inactive). For the same compound, the GI50 (LOX IMVI) was > 100 µM (inactive), the GI50 (M14) was > 100 µM (inactive) and the GI50 (MCF7) was > 100 µM (inactive). For the same compound, the GI50 (MDA-MB-231) was > 100 µM (inactive), the GI50 (MDA-MB-435) was > 100 µM (inactive) and the GI50 (MDA-N) was > 100 µM (inactive). For the same compound, the GI50 (MOLT-4) was > 100 µM (inactive), the GI50 (Malme-3M) was > 100 µM (inactive) and the GI50 (NCI-H226) was > 100 µM (inactive). For the same compound, the GI50 (NCI-H23) was > 100 µM (inactive), the GI50 (NCI-H460) was > 100 µM (inactive) and the GI50 (NCI-H522) was > 100 µM (inactive). For the same compound, the GI50 (NCI/ADR-RES) was > 100 µM (inactive), the GI50 (OVCAR-3) was > 100 µM (inactive) and the GI50 (OVCAR-4) was 78.5 µM (inactive). For the same compound, the GI50 (OVCAR-5) was > 100 µM (inactive), the GI50 (OVCAR-8) was > 100 µM (inactive) and the GI50 (PC-3) was > 100 µM (inactive). For the same compound, the GI50 (RPMI-8226) was > 100 µM (inactive), the GI50 (RXF 393) was 75.2 µM (inactive) and the GI50 (SF-268) was > 100 µM (inactive). For the same compound, the GI50 (SF-295) was > 100 µM (inactive), the GI50 (SF-539) was 69.7 µM (inactive) and the GI50 (SK-MEL-28) was > 100 µM (inactive). For the same compound, the GI50 (SK-MEL-2) was > 100 µM (inactive), the GI50 (SK-MEL-5) was > 100 µM (inactive) and the GI50 (SK-OV-3) was > 100 µM (inactive). For the same compound, the GI50 (SN12C) was > 100 µM (inactive), the GI50 (SNB-19) was > 100 µM (inactive) and the GI50 (SNB-75) was 48.3 µM (inactive). For the same compound, the GI50 (SR) was > 100 µM (inactive), the GI50 (SW-620) was > 100 µM (inactive) and the GI50 (T47D) was > 100 µM (inactive). The GI50 (TK-10) was > 100 µM (inactive), the GI50 (U-251) was 86.3 µM (inactive) and the GI50 (UACC-257) was > 100 µM (inactive). For the same compound, the GI50 (UACC-62) was > 100 µM (inactive) and the GI50 (UO-31) was > 100 µM (inactive).
